Test results taken from US20240116946A1 (Gilead Sciences, Inc., priority 2022, published 2024).
Where two headings read alike, the source gives them in different places.

How the values were obtained:
[1] = test system: SARS-CoV-2-NLuc; assay: microbe, parasite or virus in culture; format: cell-based, SARS Coronavirus 2
[2] = target: recombinant SARS-CoV-2 Main protease (Mpro) (Severe acute respiratory syndrome coronavirus 2 (2019-nCoV) (SARS-CoV-2), UniProt P0DTD1); assay: Cov Mpro Biochemical IC50 Assay
[3] = Severe acute respiratory syndrome coronavirus, 48 h, read-out: MPro EC50
[4] = recombinant SARS-CoV-2 Mpro 7.5 nM, fluorogenic peptide substrate 40 μM, read-out: MPro IC50
[5] = recombinant SARS-CoV-2 Mpro, fluorogenic peptide substrate, read-out: MPro IC50
[6] = Severe acute respiratory syndrome coronavirus, 48 h; read-out: MPro EC50

COc1cc(-c2cc3c(s2)c(=O)n(-c2cncc4nnn(C)c24)c(=O)n3CCC#N)c(Cl)cc1F [Example 936, 3-(6-(2-chloro-4-fluoro-5-methoxyphenyl)-3-(1-methyl-1H-[1,2,3]triazolo[4,5-c]pyridin-7-yl)-2,4-dioxo-3,4-dihydrothieno[3,2-d]pyrimidin-1(2H)-yl)propanenitrile]
EC50 [1, 3]: 6.65 nM
IC50 [2, 4]: 5.46 nM

O=c1[nH]c2cc(-c3cc4c(cc3Cl)OCO4)sc2c(=O)n1-c1cncc2ccccc12 [Example 347]
EC50 [1, 3]: 642 nM
IC50 [2, 5]: 441 nM

COc1cc(-c2cc3c(s2)c(=O)n(-c2cncc4c2c(C(F)(F)F)nn4COCC[Si](C)(C)C)c(=O)n3CCC#N)c(Cl)cc1F [Example 1046, 3-(6-(2-chloro-4-fluoro-5-methoxyphenyl)-2,4-dioxo-3-(3-(trifluoromethyl)-1-((2-(trimethylsilyl)ethoxy)methyl)-1H-pyrazolo[3,4-c]pyridin-4-yl)-3,4-dihydrothieno[3,2-d]pyrimidin-1(2H)-yl)propanenitrile]
EC50 [1, 6]: 129 nM
IC50 ([2]; MPro IC50, recombinant SARS-CoV-2 Mpro 7.5 nM, fluorogenic peptide substrate 40 μM): 35.8 nM

COc1cc(-c2cc3[nH]c(=O)n(-c4cncc(Cl)c4)c(=O)c3s2)c(Cl)cc1F [Example 715]
EC50 [1, 6]: 9.94 nM
IC50 [2, 4]: 4.63 nM

CC(C)n1cc(-c2cccc(Cl)c2-c2ccc3c(=O)n(-c4cncc5ccccc45)c(=O)[nH]c3c2)c(C(F)(F)F)n1 [Example 282]
EC50 [1, 3]: 72.4 nM
IC50 [2, 5]: 148 nM

Cn1cnc2cncc(-n3c(=O)c4sc(-c5cc(F)c(F)cc5Cl)cc4n(CCC#N)c3=O)c21 [Example 852]
EC50 [1, 6]: 104 nM
IC50 [2, 4]: 27.4 nM

O=c1c2sc(-c3ccccc3Cl)cc2n(CC2CCCC2)c(=O)n1-c1cncc2ccccc12 [Example 4]
EC50 [1, 3]: 892 nM
IC50 [2, 5]: 792 nM

COc1cc(-c2cc3c(s2)c(=O)n(-c2cncc4ccncc24)c(=O)n3CCC#N)c(Cl)cc1F (single isomer, unassigned) [Example 1098, 3-[6-(2-chloro-4-fluoro-5-methoxy-phenyl)-3-(2,6-naphthyridin-4-yl)-2,4-dioxo-thieno[3,2-d]pyrimidin-1-yl]propanenitrile]
EC50 ([1]; read-out: MPro EC50): 1.91 nM
IC50 [2, 4]: 3.81 nM

COc1cc(-c2cc3c(s2)c(=O)n(-c2cncc(CO)c2)c(=O)n3CCC#N)c(C#N)cc1F [Example 1102]
EC50 [1, 3]: 568 nM
IC50 [2, 4]: 4.12 nM

COc1ccc(Cl)c(-c2cc3[nH]c(=O)n(-c4cncc5scc(C)c45)c(=O)c3s2)c1 [Example 609, 6-(2-chloro-5-methoxyphenyl)-3-(3-methylthieno[2,3-c]pyridin-4-yl)thieno[3,2-d]pyrimidine-2,4(1H,3H)-dione]
EC50 [1, 3]: < 3.39 nM
IC50 [2, 4]: < 2.54 nM

NC(=O)c1ccccc1-c1cnc2c(=O)n(-c3cncc4ccccc34)c(=O)[nH]c2c1 [Example 70]
EC50 [1, 3]: > 50000 nM
IC50 [2, 5]: 2680 nM

O=c1[nH]c2cc(-c3cccc4c3CCC4)sc2c(=O)n1-c1cncc2ccccc12 [Example 168, 6-(2,3-dihydro-1H-inden-4-yl)-3-(isoquinolin-4-yl)thieno[3,2-d]pyrimidine-2,4(1H,3H)-dione]
EC50 [1, 3]: 810 nM
IC50 [2, 5]: 615 nM

COc1cc(-c2cc3[nH]c(=O)n(-c4cncc5cccc(F)c45)c(=O)c3s2)c(Cl)cc1F (single isomer, unassigned) [Example 899, 6-(2-chloro-4-fluoro-5-methoxyphenyl)-3-(5-fluoroisoquinolin-4-yl)thieno[3,2-d]pyrimidine-2,4(1H,3H)-dione]
EC50 ([1]; read-out: MPro EC50): 3.13 nM
IC50 [2, 4]: 4.03 nM

COc1cc(-c2cc3c(s2)c(=O)n(-c2cncc4cnn(C5CC5)c24)c(=O)n3CC#N)c(Cl)cc1F [Example 691]
EC50 [1, 3]: 2.91 nM
IC50 [2, 4]: 3.07 nM

O=c1[nH]c2cc(-c3ccccc3Cl)sc2c(=O)n1-c1cncc2cnccc12 [Example 584]
EC50 [1, 3]: 31.9 nM
IC50 [2, 4]: 12.9 nM

COc1ccc(C#N)c(-c2cc3[nH]c(=O)n(-c4cncc5ccsc45)c(=O)c3s2)c1 [Example 483]
EC50 [1, 3]: 18.1 nM
IC50 [2, 4]: < 2.54 nM

COc1cc(-c2ccc3c(=O)n(-c4cncc5ccccc45)c(=O)[nH]c3c2)c(Cl)cc1F [Example 299]
EC50 [1, 3]: 36.1 nM
IC50 [2, 5]: 72.4 nM

Cn1cc(-c2cccc(Cl)c2-c2ccc3c(=O)n(-c4cncc5ccccc45)c(=O)[nH]c3c2)c(C2CC2)n1 [Example 262]
EC50 [1, 3]: < 4.41 nM
IC50 [2, 5]: 6.12 nM

O=c1[nH]c2cc(-c3ccccc3Cl)sc2c(=O)n1-c1cncc2ccc(N3C[C@@H]4C[C@H]3CO4)cc12 [Example 393]
EC50 [1, 3]: 12.2 nM
IC50 [2, 4]: 9 nM

O=c1[nH]c2cc(-c3ccccc3Cl)sc2c(=O)n1-c1cncc2c1OCCC2 [Example 588]
EC50 [1, 3]: 47.4 nM
IC50 [2, 4]: 14.8 nM

N#CCCn1c(=O)n(-c2cncc(OC(F)F)c2)c(=O)c2sc(-c3ccccc3C#N)cc21 [Example 816]
EC50 [1, 6]: 342 nM
IC50 [2, 4]: 58.1 nM

COc1cc(-c2cc3c(s2)c(=O)n(-c2cncc4cnn(C)c24)c(=O)n3CCC#N)c(C#N)cc1F (single isomer, unassigned) [Example 1004, 2-[1-(2-cyanoethyl)-3-(1-methylpyrazolo[4,3-c]pyridin-7-yl)-2,4-dioxo-thieno[3,2-d]pyrimidin-6-yl]-5-fluoro-4-methoxy-benzonitrile]
EC50 ([1]; read-out: MPro EC50): 112 nM
IC50 [2, 4]: 71.5 nM

O=c1c2ccc(-c3ccccc3Cl)cc2[nH]c(=S)n1-c1cncc2ccccc12 [Example 239]
EC50 [1, 6]: 1820 nM
IC50 ([2]; MPro IC50, recombinant SARS-CoV-2 Mpro, fluorogenic peptide substrate): 4840 nM

COc1ccc(C#N)c(-c2cc3[nH]c(=O)n(-c4cncc5ccc(N6CCOCC6)cc45)c(=O)c3s2)c1 [Example 433]
EC50 [1, 3]: 69.5 nM
IC50 [2, 4]: 7.8 nM

COc1ccc(C#N)c(-c2cc3[nH]c(=O)n(-c4cncc5ccc(N6CCC(F)(F)C6)cc45)c(=O)c3s2)c1 [Example 418]
EC50 [1, 3]: 126 nM
IC50 [2, 4]: 21.4 nM

COc1cc(-c2cc3[nH]c(=O)n(-c4cncc5cccnc45)c(=O)c3s2)c(Cl)cc1F [Example 553, 6-(2-chloro-4-fluoro-5-methoxy-phenyl)-3-(1,6-naphthyridin-8-yl)-1H-thieno[3,2-d]pyrimidine-2,4-dione]
EC50 [1, 3]: 12 nM
IC50 [2, 4]: 7.58 nM

Cn1cnc(Cn2c(=O)n(-c3cncc(C4CC4)c3)c(=O)c3sc(-c4ccccc4Cl)cc32)n1 [Example 621]
EC50 [1, 3]: 710 nM
IC50 [2, 4]: 495 nM

COc1ccc(Cl)c(-c2cc3[nH]c(=O)n(-c4cncc5ccsc45)c(=O)c3s2)c1 [Example 480]
EC50 [1, 3]: 10.2 nM
IC50 [2, 4]: 4.97 nM

Cc1cc(-c2cccc(Cl)c2-c2ccc3c(=O)n(-c4cncc5ccccc45)c(=O)[nH]c3c2)cn2nnnc12 [Example 245]
EC50 [1, 3]: 20.4 nM
IC50 [2, 5]: 13.2 nM

Cc1cnc(Cl)c(-c2cc3c(s2)c(=O)n(-c2cncc4cnn(C)c24)c(=O)n3CCC#N)c1 [Example 1020]
EC50 [1, 3]: 398 nM
IC50 [2, 4]: 107 nM

COc1cc(-c2cc3c(s2)c(=O)n(-c2cncc4ccccc24)c(=O)n3CCC#N)c(Cl)cc1F (single isomer, unassigned) [Example 637, 3-[6-(2-chloro-4-fluoro-5-methoxy-phenyl)-3-(4-isoquinolyl)-2,4-dioxo-thieno[3,2-d]pyrimidin-1-yl]propanenitrile]
EC50 ([1]; read-out: MPro EC50): 1.85 nM
IC50 [2, 4]: 3.48 nM

O=c1[nH]c2cc(-c3ccccc3Cl)sc2c(=O)n1-c1cncc2c1CCCO2 [Example 596]
EC50 [1, 3]: 108 nM
IC50 [2, 4]: 38.2 nM

COc1cnc(Cl)c(-c2ccc3c(=O)n(-c4cncc5ccccc45)c(=O)[nH]c3c2)c1 [Example 257]
EC50 [1, 3]: 1150 nM
IC50 [2, 5]: 500 nM

Cc1cc(Cl)cc(Cl)c1-c1cc2[nH]c(=O)n(-c3cncc4ccccc34)c(=O)c2s1 [Example 721]
EC50 [1, 3]: 478 nM
IC50 [2, 4]: 705 nM

COc1cc(-c2cc3[nH]c(=O)n(-c4cnnc5ccccc45)c(=O)c3s2)c(Cl)cc1F [Example 745]
EC50 [1, 6]: 257 nM
IC50 [2, 4]: 92 nM

C#Cc1cc(F)c(OC)cc1-c1cc2c(s1)c(=O)n(-c1cncc3nnn(C4CC4)c13)c(=O)n2CCC#N [Example 882]
EC50 [1, 3]: 69.7 nM
IC50 [2, 4]: 26.3 nM

COc1cc(-c2cc3c(s2)c(=O)n(-c2cncc4ccccc24)c(=O)n3CC#N)c(Cl)cc1F [Example 630, 2-[6-(2-chloro-4-fluoro-5-methoxy-phenyl)-3-(4-isoquinolyl)-2,4-dioxo-thieno[3,2-d]pyrimidin-1-yl]acetonitrile]
EC50 [1, 6]: 9.35 nM
IC50 [2, 4]: 6.31 nM

COc1ccc(-c2cc3[nH]c(=O)n(-c4cncc5ccccc45)c(=O)c3s2)c(C#N)c1 [Example 539]
EC50 [1, 3]: 675 nM
IC50 [2, 4]: 141 nM

Cc1nn(C)cc1-c1cc2[nH]c(=O)n(-c3cncc(C4CC4)c3)c(=O)c2s1 [Example 366]
EC50 [1, 6]: 32200 nM
IC50 [2, 5]: 36800 nM

N#Cc1cc(F)c(F)cc1-c1cc2[nH]c(=O)n(-c3cncc4ccccc34)c(=O)c2s1 [Example 540]
EC50 [1, 3]: > 50000 nM
IC50 [2, 4]: 911 nM
